Data taken from paper PMC6409085, “Three odorant-binding proteins are involved in the behavioral response of Sogatella furcifera to rice plant volatiles” (PeerJ, 2019).
“And” between values parts separate entries of the source, which are not always exact repeats. Equal entries are not always repeated.

How the values were obtained:
S. furcifera adults = assay: Y-tube olfactometer behavioral trials; format: in vivo, Sogatella furcifera; conditions: odorant 50 µL/L vs hexane; adults
How it was run: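 Single S. furcifera adults (2 days post-emergence, starved 0.5 h) chose between odorant (100 µL of 50 µL/L on filter paper) and hexane control in a glass Y-tube, charcoal-filtered humidified air 300 mL/min per arm, 25 ± 1 °C, 50% RH. Choice scored if insect passed half an arm and stayed >1 min within 10 min; 45 insects per compound, chi-squared test.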

SfurOBP1 = SfurOBP1 (Sogatella furcifera, UniProt V5T8N5); assay: biochemical; format: binding; conditions: for Fluorescence competitive binding assay, fluorescence intensity: OBP1, three replicate columns
SfurOBP1, sequence (V5T8N5 entry or part of it): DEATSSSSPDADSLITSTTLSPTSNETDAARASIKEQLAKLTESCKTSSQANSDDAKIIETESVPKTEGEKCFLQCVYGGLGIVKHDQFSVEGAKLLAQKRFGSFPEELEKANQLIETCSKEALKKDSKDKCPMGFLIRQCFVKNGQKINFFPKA
How it was run: (§1)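 K1-NPN came from titrating 2.0 µM protein (50 mM Tris-HCl, pH 7.4) with 1-NPN. Odorants at 2-20 µM then competed against 2.0 µM protein plus 2.0 µM 1-NPN for 2 min, with excitation at 337 nm and emission recorded over 390-490 nm. IC50 values were converted to Ki via Ki = IC50/(1 + [1-NPN]/K1-NPN).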

SfurOBP2 = SfurOBP2 (Sogatella furcifera, UniProt V5T759); assay: biochemical; format: binding
SfurOBP2, sequence (V5T759 entry or part of it): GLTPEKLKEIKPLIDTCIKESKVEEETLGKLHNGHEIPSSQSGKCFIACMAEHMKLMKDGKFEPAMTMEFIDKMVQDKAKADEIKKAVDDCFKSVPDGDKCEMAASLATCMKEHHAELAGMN
How it was run: as §1

SfurOBP3 = SfurOBP3 (Sogatella furcifera, UniProt V5T818); assay: biochemical; format: binding; conditions: for Fluorescence competitive binding assay, fluorescence intensity: OBP3, three replicate columns
SfurOBP3, sequence (V5T818 entry or part of it): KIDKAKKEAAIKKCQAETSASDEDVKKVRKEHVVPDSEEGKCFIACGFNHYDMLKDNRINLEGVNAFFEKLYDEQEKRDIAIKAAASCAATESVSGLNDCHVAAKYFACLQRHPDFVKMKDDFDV
How it was run: as §1

SfurOBP11 = SfurOBP11 (Sogatella furcifera, UniProt V5T6E3); assay: biochemical; format: binding
SfurOBP11, sequence (V5T6E3 entry or part of it): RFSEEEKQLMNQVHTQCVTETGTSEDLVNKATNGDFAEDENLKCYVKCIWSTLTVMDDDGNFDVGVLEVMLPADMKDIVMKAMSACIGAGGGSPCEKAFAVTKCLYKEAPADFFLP
How it was run: as §1

SMILES: CCCCCCCCCCCCC=O [tridecanal]
- number of insects choosing hexane arm (S. furcifera adults): 11
- number of insects choosing volatilies arm (S. furcifera adults): 13
- number of insects failed (no choice) (S. furcifera adults): 16
- Fluorescence competitive binding assay, fluorescence intensity (SfurOBP1; ligand concentration 2 (μM)): 7938 and 8209 and 9100
- Fluorescence competitive binding assay, fluorescence intensity (SfurOBP1; ligand concentration 4 (μM)): 8199 and 9497 and 8248
- Fluorescence competitive binding assay, fluorescence intensity (SfurOBP1; ligand concentration 6 (μM)): 9970 and 9490 and 9404
- Fluorescence competitive binding assay, fluorescence intensity (SfurOBP1; ligand concentration 8 (μM)): 9879 and 9942 and 9021
- Fluorescence competitive binding assay, fluorescence intensity (SfurOBP1; ligand concentration 10 (μM)): 11694 and 10870 and 12178
- Fluorescence competitive binding assay, fluorescence intensity (SfurOBP1; ligand concentration 12 (μM)): 10792 and 13471 and 12081
- Fluorescence competitive binding assay, fluorescence intensity (SfurOBP1; ligand concentration 14 (μM)): 13762 and 12603 and 7069
- Fluorescence competitive binding assay, fluorescence intensity (SfurOBP1; ligand concentration 16 (μM)): 15566 and 12262 and 13672
- Fluorescence competitive binding assay, fluorescence intensity (SfurOBP1; ligand concentration 18 (μM)): 13469 and 13374 and 13884
- Fluorescence competitive binding assay, fluorescence intensity (SfurOBP1; ligand concentration 20 (μM)): 16296 and 16551 and 15519
- IC50 (SfurOBP1; SfurOBP1, protein and 1-NPN both 2.0 µM, competitor 2-20 µM, read-out: IC50): > 20 µM
- IC50 (SfurOBP2; SfurOBP2, protein and 1-NPN both 2.0 µM, competitor 2-20 µM, read-out: IC50): > 20 µM
- Fluorescence competitive binding assay, OBP2 (raw fluorescence reading) (SfurOBP2; ligand concentration 2 (unit not given), replicate column 1 of 3): 15375
- Fluorescence competitive binding assay, OBP2 (raw fluorescence reading) (SfurOBP2; ligand concentration 2 (unit not given), replicate column 2 of 3): 16260
- Fluorescence competitive binding assay, OBP2 (raw fluorescence reading) (SfurOBP2; ligand concentration 2 (unit not given), replicate column 3 of 3): 17114
- Fluorescence competitive binding assay, OBP2 (raw fluorescence reading) (SfurOBP2; ligand concentration 4 (unit not given), replicate column 1 of 3): 15250
- Fluorescence competitive binding assay, OBP2 (raw fluorescence reading) (SfurOBP2; ligand concentration 4 (unit not given), replicate column 2 of 3): 17637
- Fluorescence competitive binding assay, OBP2 (raw fluorescence reading) (SfurOBP2; ligand concentration 4 (unit not given), replicate column 3 of 3): 17949
- Fluorescence competitive binding assay, OBP2 (raw fluorescence reading) (SfurOBP2; ligand concentration 6 (unit not given), replicate column 1 of 3): 17180
- Fluorescence competitive binding assay, OBP2 (raw fluorescence reading) (SfurOBP2; ligand concentration 6 (unit not given), replicate column 2 of 3): 18194
- Fluorescence competitive binding assay, OBP2 (raw fluorescence reading) (SfurOBP2; ligand concentration 6 (unit not given), replicate column 3 of 3): 18919
- Fluorescence competitive binding assay, OBP2 (raw fluorescence reading) (SfurOBP2; ligand concentration 8 (unit not given), replicate column 1 of 3): 15100
- Fluorescence competitive binding assay, OBP2 (raw fluorescence reading) (SfurOBP2; ligand concentration 8 (unit not given), replicate column 2 of 3): 16066
- Fluorescence competitive binding assay, OBP2 (raw fluorescence reading) (SfurOBP2; ligand concentration 8 (unit not given), replicate column 3 of 3): 16289
- Fluorescence competitive binding assay, OBP2 (raw fluorescence reading) (SfurOBP2; ligand concentration 10 (unit not given), replicate column 1 of 3): 16213
- Fluorescence competitive binding assay, OBP2 (raw fluorescence reading) (SfurOBP2; ligand concentration 10 (unit not given), replicate column 2 of 3): 16940
- Fluorescence competitive binding assay, OBP2 (raw fluorescence reading) (SfurOBP2; ligand concentration 10 (unit not given), replicate column 3 of 3): 17695
- Fluorescence competitive binding assay, OBP2 (raw fluorescence reading) (SfurOBP2; ligand concentration 12 (unit not given), replicate column 1 of 3): 14964
- Fluorescence competitive binding assay, OBP2 (raw fluorescence reading) (SfurOBP2; ligand concentration 12 (unit not given), replicate column 2 of 3): 18259
- Fluorescence competitive binding assay, OBP2 (raw fluorescence reading) (SfurOBP2; ligand concentration 12 (unit not given), replicate column 3 of 3): 16491
- Fluorescence competitive binding assay, OBP2 (raw fluorescence reading) (SfurOBP2; ligand concentration 14 (unit not given), replicate column 1 of 3): 16687
- Fluorescence competitive binding assay, OBP2 (raw fluorescence reading) (SfurOBP2; ligand concentration 14 (unit not given), replicate column 2 of 3): 18876
- Fluorescence competitive binding assay, OBP2 (raw fluorescence reading) (SfurOBP2; ligand concentration 14 (unit not given), replicate column 3 of 3): 18074
- Fluorescence competitive binding assay, OBP2 (raw fluorescence reading) (SfurOBP2; ligand concentration 16 (unit not given), replicate column 1 of 3): 17882
- Fluorescence competitive binding assay, OBP2 (raw fluorescence reading) (SfurOBP2; ligand concentration 16 (unit not given), replicate column 2 of 3): 16512
- Fluorescence competitive binding assay, OBP2 (raw fluorescence reading) (SfurOBP2; ligand concentration 16 (unit not given), replicate column 3 of 3): 18645
- Fluorescence competitive binding assay, OBP2 (raw fluorescence reading) (SfurOBP2; ligand concentration 18 (unit not given), replicate column 1 of 3): 18334
- Fluorescence competitive binding assay, OBP2 (raw fluorescence reading) (SfurOBP2; ligand concentration 18 (unit not given), replicate column 2 of 3): 17452
- Fluorescence competitive binding assay, OBP2 (raw fluorescence reading) (SfurOBP2; ligand concentration 18 (unit not given), replicate column 3 of 3): 17782
- Fluorescence competitive binding assay, OBP2 (raw fluorescence reading) (SfurOBP2; ligand concentration 20 (unit not given), replicate column 1 of 3): 16896
- Fluorescence competitive binding assay, OBP2 (raw fluorescence reading) (SfurOBP2; ligand concentration 20 (unit not given), replicate column 2 of 3): 19235
- Fluorescence competitive binding assay, OBP2 (raw fluorescence reading) (SfurOBP2; ligand concentration 20 (unit not given), replicate column 3 of 3): 19174
- Fluorescence competitive binding assay, fluorescence intensity (SfurOBP3; ligand concentration 2): 42528 and 41583 and 43473
- Fluorescence competitive binding assay, fluorescence intensity (SfurOBP3; ligand concentration 4): 41210 and 39055 and 38819
- Fluorescence competitive binding assay, fluorescence intensity (SfurOBP3; ligand concentration 6): 40763 and 42069 and 38391
- Fluorescence competitive binding assay, fluorescence intensity (SfurOBP3; ligand concentration 8): 40006 and 42611 and 39486
- Fluorescence competitive binding assay, fluorescence intensity (SfurOBP3; ligand concentration 10): 37952 and 40731 and 37192
- Fluorescence competitive binding assay, fluorescence intensity (SfurOBP3; ligand concentration 12): 41103 and 37710 and 38844
- Fluorescence competitive binding assay, fluorescence intensity (SfurOBP3; ligand concentration 14): 39070 and 39869 and 40524
- Fluorescence competitive binding assay, fluorescence intensity (SfurOBP3; ligand concentration 16): 39064 and 38170 and 38620
- Fluorescence competitive binding assay, fluorescence intensity (SfurOBP3; ligand concentration 18): 39885 and 40160 and 39604
- Fluorescence competitive binding assay, fluorescence intensity (SfurOBP3; ligand concentration 20): 39750 and 40400 and 40150
- IC50 (SfurOBP3; SfurOBP3, protein and 1-NPN both 2.0 µM, competitor 2-20 µM, read-out: IC50): > 20 µM
- IC50 (SfurOBP11; SfurOBP11, protein and 1-NPN both 2.0 µM, competitor 2-20 µM, read-out: IC50): > 20 µM
- Fluorescence intensity, fluorescence competitive binding assay, OBP11 (SfurOBP11; ligand concentration 2, replicate 1): 24967
- Fluorescence intensity, fluorescence competitive binding assay, OBP11 (SfurOBP11; ligand concentration 2, replicate 2): 25926
- Fluorescence intensity, fluorescence competitive binding assay, OBP11 (SfurOBP11; ligand concentration 2, replicate 3): 30699
- Fluorescence intensity, fluorescence competitive binding assay, OBP11 (SfurOBP11; ligand concentration 4, replicate 1): 25125
- Fluorescence intensity, fluorescence competitive binding assay, OBP11 (SfurOBP11; ligand concentration 4, replicate 2): 27382
- Fluorescence intensity, fluorescence competitive binding assay, OBP11 (SfurOBP11; ligand concentration 4, replicate 3): 26896
- Fluorescence intensity, fluorescence competitive binding assay, OBP11 (SfurOBP11; ligand concentration 6, replicate 1): 26493
- Fluorescence intensity, fluorescence competitive binding assay, OBP11 (SfurOBP11; ligand concentration 6, replicate 2): 26335
- Fluorescence intensity, fluorescence competitive binding assay, OBP11 (SfurOBP11; ligand concentration 6, replicate 3): 26650
- Fluorescence intensity, fluorescence competitive binding assay, OBP11 (SfurOBP11; ligand concentration 8, replicate 1): 24847
- Fluorescence intensity, fluorescence competitive binding assay, OBP11 (SfurOBP11; ligand concentration 8, replicate 2): 24250
- Fluorescence intensity, fluorescence competitive binding assay, OBP11 (SfurOBP11; ligand concentration 8, replicate 3): 25420
- Fluorescence intensity, fluorescence competitive binding assay, OBP11 (SfurOBP11; ligand concentration 10, replicate 1): 24577
- Fluorescence intensity, fluorescence competitive binding assay, OBP11 (SfurOBP11; ligand concentration 10, replicate 2): 24121
- Fluorescence intensity, fluorescence competitive binding assay, OBP11 (SfurOBP11; ligand concentration 10, replicate 3): 25032
- Fluorescence intensity, fluorescence competitive binding assay, OBP11 (SfurOBP11; ligand concentration 12, replicate 1): 26676
- Fluorescence intensity, fluorescence competitive binding assay, OBP11 (SfurOBP11; ligand concentration 12, replicate 2): 27183
- Fluorescence intensity, fluorescence competitive binding assay, OBP11 (SfurOBP11; ligand concentration 12, replicate 3): 26168
- Fluorescence intensity, fluorescence competitive binding assay, OBP11 (SfurOBP11; ligand concentration 14, replicate 1): 24529
- Fluorescence intensity, fluorescence competitive binding assay, OBP11 (SfurOBP11; ligand concentration 14, replicate 2): 23823
- Fluorescence intensity, fluorescence competitive binding assay, OBP11 (SfurOBP11; ligand concentration 14, replicate 3): 25235
- Fluorescence intensity, fluorescence competitive binding assay, OBP11 (SfurOBP11; ligand concentration 16, replicate 1): 23763
- Fluorescence intensity, fluorescence competitive binding assay, OBP11 (SfurOBP11; ligand concentration 16, replicate 2): 25792
- Fluorescence intensity, fluorescence competitive binding assay, OBP11 (SfurOBP11; ligand concentration 16, replicate 3): 24713
- Fluorescence intensity, fluorescence competitive binding assay, OBP11 (SfurOBP11; ligand concentration 18, replicate 1): 29957
- Fluorescence intensity, fluorescence competitive binding assay, OBP11 (SfurOBP11; ligand concentration 18, replicate 2): 29942
- Fluorescence intensity, fluorescence competitive binding assay, OBP11 (SfurOBP11; ligand concentration 18, replicate 3): 30678
- Fluorescence intensity, fluorescence competitive binding assay, OBP11 (SfurOBP11; ligand concentration 20, replicate 1): 31322
- Fluorescence intensity, fluorescence competitive binding assay, OBP11 (SfurOBP11; ligand concentration 20, replicate 2): 31721
- Fluorescence intensity, fluorescence competitive binding assay, OBP11 (SfurOBP11; ligand concentration 20, replicate 3): 27795
